Experimental data from the METLIN SMRT retention time set (Domingo-Almenara et al. 2019).

Test: gradient 5% acetonitrile 3 min, to 50% in 2 min, to 85% in 15 min, held 3 min, 100 µL/min
Details: column: Zorbax Extend-C18 2.1 x 50 mm; eluents: water / acetonitrile, 0.1% formic acid
Method in brief: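 Pure standards were run in mixtures of ~100 molecules by HPLC coupled to a quadrupole time-of-flight mass spectrometer. The column was a Zorbax Extend-C18 (2.1 × 50 mm, 1.8 μm) at 100 μL/min, with water and acetonitrile each containing 0.1% formic acid, in positive and negative ionization mode. Dead and dwell volumes were 40 μL and 900 μL. Retention time was taken from computationally picked adduct peaks, each manually inspected, with data collected over 3 months.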

Row | Structure (SMILES) | RP-LC retention time [s]
1 | Cc1cccc(-c2nc(C)c3c(n2)N(Cc2ccco2)C(=O)CC3)c1 | 1110
2 | Cc1ccc(C2Cn3cnc(C(=O)N4CCC(C(=O)NCCCc5ccccc5)CC4)c3CO2)cc1 (centres undefined) | 853
3 | COc1ccc(NC(=O)N2[C@H]3CC[C@@H]2c2cncnc2C3)c(OC)c1 | 639
4 | Cc1ccc(-n2ccc(=O)c(-c3nc(-c4ccc(F)c(Cl)c4)no3)n2)cc1 | 1030
5 | COCc1cc(=O)n(CC(=O)Nc2ccc(OC)cc2)c(N2CCOCC2)n1 | 755
6 | Cc1ccc2c(c1)c(C)c(C)n2CC(O)Cn1nc(C)cc1C (centres undefined) | 933
7 | CCn1cc(CCN2CCN(C(=O)C3CCCC3)CC2)c2cccnc21 | 597
8 | CSc1ccc(CNC(=O)C2CCN(c3ccc(N4CCOCC4)nn3)CC2)cc1 | 638
9 | Nc1nc(N)nc(C2C=CCCC2)n1 (centres undefined) | 620
10 | Cc1ccc(-n2cc3c(N4CCCC(C(=O)NCc5cccc(C(F)(F)F)c5)C4)ncnc3n2)cc1 (centres undefined) | 772
11 | CC(=O)N1CCc2cc(C)c(S(=O)(=O)NC3CC3)cc21 | 709
12 | O=C(Cc1nnc(-c2ccc3ncccc3c2)o1)N1CCN(c2ccccc2)CC1 | 716
13 | Cc1cc(=O)n2nc(-c3ccc(Cl)cc3)nc2n1CC(=O)N1CCN(c2ccc(F)cc2)CC1 | 933
14 | CC(=O)N1CCCC1c1nc2ccccc2n1CC(=O)N1CCCCC1 (centres undefined) | 594
15 | COc1ccc(OCCn2c(C(F)(F)F)nc3cc4c(cc32)OCCO4)cc1 | 985
16 | Clc1ccc(-c2ccc(CNCc3ccc4c(c3)OCO4)o2)cc1 | 762
17 | COc1ccc(-c2nc3c4cnn(-c5ccccc5Cl)c4ncn3n2)cc1OC | 845
18 | CCCS(=O)(=O)N1CCC(CCOC)(NC(=O)C2CC2)CC1 | 686
19 | COc1nc2ccccc2nc1N1CCCC(C(=O)NCc2ccco2)C1 (centres undefined) | 951
20 | CCC(=O)N1CCc2cc(N3CC(C(=O)Nc4ccccc4F)CC3=O)ccc21 (centres undefined) | 741
21 | COc1ccc(-c2cc(C(=O)N3CCC(NC(=O)C4CCCC4)CC3)[nH]n2)cc1 | 713

Row | Structure (SMILES) | RP-LC retention time [s]
22 | COc1cccc(C2=NC3(CCN(C(C)C)CC3)NC(c3cc(Br)ccc3O)C2)c1 (centres undefined) | 647
23 | CCNC(=O)Cc1nnc(-c2ccc(OC)cc2)o1 | 634
24 | CNC(=O)c1cnn(-c2nc(N)c3ncn([C@@H]4O[C@H](CO)C(O)C4O)c3n2)c1 (some centres undefined) | 586
25 | Cc1cc(C)cc(S(=O)(=O)N2CCc3c(c(-c4nnc(-c5ccccc5F)o4)nn3C)C2)c1 | 998
26 | Cc1noc(-c2nc(-c3ccncc3)no2)n1 | 703
27 | CCn1cc(C(=O)Nc2cccc(C)c2)c2cccnc21 | 857
28 | O=C(c1ccc(F)c(F)c1)N1CCc2nc(-c3ccc(Cl)cc3)ncc2C1 | 1020
29 | COc1ccc(C2CC(=O)N(c3ccc(Cl)cc3)C(=O)C2)cc1OC | 859
30 | CCn1cc(C)c(C(=O)O)c1CC(=O)N1CCN(C2CCCCC2)CC1 | 597
31 | CC(C)NC(=O)c1ccc(OCC2CCCN(C(=O)c3ccccc3Cl)C2)cc1 (centres undefined) | 876
32 | CC(C)CN1CCN(C(=O)C2CCCN(c3cnc4nccnc4c3)C2)CC1 (centres undefined) | 564
33 | O=C(c1ccccn1)N1CCCCC1c1nc(-c2cnccn2)no1 (centres undefined) | 637
34 | CCC1(O)CCOC2(CCN(Cc3cccc(OC)n3)CC2)C1 (centres undefined) | 602
35 | O=C(c1ccc(OCC2CCCN2C(=O)c2ccc(F)cc2)cc1)N1CCCC1 (centres undefined) | 829
36 | CCCCN(C)C(=O)Cn1ccn2nc(-c3ccccc3)c(CO)c2c1=O | 776
37 | O=C(c1nc(-c2ccc(Cl)cc2)n2c1CCCCC2)N1CCN(c2ncccn2)CC1 | 767
38 | Cc1ccc(C)c(Sc2ccc(N3CCC(C(=O)NC4CC4)CC3)nn2)c1 | 713
39 | CCOc1ccc(-n2c(CN3CCN(C(=O)NC(C)CC)CC3)nc3cccnc32)cc1 (centres undefined) | 650
40 | O=C(C1=CN(c2ccc(F)cc2)c2cc(Cl)ccc2S1(=O)=O)N1CCCC1 | 844
41 | CCOC(=O)C1CCN(S(=O)(=O)c2cc(-c3nc(C(C)(C)C)cs3)cs2)CC1 | 1310
42 | O=c1ccc(-c2ccccc2Cl)nn1Cc1nc(-c2ccc3c(c2)OCO3)no1 | 996

Row | Structure (SMILES) | RP-LC retention time [s]
43 | CC(C)NC(=O)c1ccc(OCC2CCCN(C(=O)c3ccc(F)c(F)c3)C2)cc1 (centres undefined) | 869
44 | Cn1c(=O)oc2cc(-c3noc(-c4cc(F)ccc4F)n3)ccc21 | 1010
45 | O=C(Nc1ccccc1Br)N[C@@H]1CCN(c2ccc(C(F)(F)F)cn2)C1 | 937
46 | COc1cccc(-c2nc(C3CCN(S(=O)(=O)c4c(C)cc(C)cc4C)CC3)no2)c1 | 1320
47 | CCN1CCN(C(=O)C2Cc3cc(S(=O)(=O)N4CCCCC4)ccc3N2C(C)=O)CC1 (centres undefined) | 601
48 | COc1ccc(N(Cc2nnc3n2CCCCC3)C(=O)Nc2ccccc2OC)cc1 | 772
49 | O=C(NCc1cccs1)c1nc2ccccn2c1-c1ccccc1 | 853
50 | Cc1cc(C)cc(NC(=O)C2CCCN(S(=O)(=O)c3cc(-c4noc(C)n4)cs3)C2)c1 (centres undefined) | 1060
51 | COCCCNC(=O)c1cc(-c2ccccc2)nc2n[nH]c(-c3ccccc3)c12 | 769
52 | COc1cc2c(cc1OC)[C@@H](C(=O)Nc1ccc(F)cc1)[C@@H]1CCCCN1C2=O | 773
53 | COCCNC(=O)C1CCCN(c2cc(=O)n(C)c(=O)n2C)C1 (centres undefined) | 567
54 | Cn1cncc1C(=O)N1CC(F)(F)C[C@H]1c1nc(C2CC2)no1 | 620
55 | O=C(COc1ccc(Cl)cc1Cl)NCC1CCN(C(=O)c2ccccc2F)CC1 | 858
56 | Cc1csc(-c2cc(S(=O)(=O)N3CCN(C4CCCCC4)CC3)c(C)s2)n1 | 714
57 | COc1ccc(-c2cn3ccn(-c4ccc(OC)c(Cl)c4)c(=O)c3n2)cc1 | 1240
58 | O=C(NCCn1cnc2cc(C(=O)N3CCCC3)ccc21)Nc1ccc(Br)cc1F | 639
59 | CCn1ccc(C(=O)N2CCCn3nc(-c4cccs4)cc3C2)n1 | 748
60 | CCN(CC)c1ccc(-c2nc3ncccn3c2NCc2ccccc2)cc1 | 712
61 | CC1CCN(CCCNC(=O)C2CCc3sc(C(=O)N4CCOCC4)cc3C2)CC1 (centres undefined) | 596
62 | COc1ccccc1C1=NN(C(=O)c2ccccc2C)C(c2ccco2)C1 (centres undefined) | 976

Second part, the compound after the results:

Row | RP-LC retention time [s] | Structure (SMILES)
63 | 690 | COc1ccc(NC(=O)C2(C)CCCCC(=O)N2)cc1F (centres undefined)
64 | 721 | Cc1noc(C)c1CC(=O)N1CC(n2cc(COc3ccc(F)cc3)nn2)C1
65 | 1050 | Cc1cc(NC(=O)c2csc(-c3cn(C)c4ncccc34)n2)ccc1F
66 | 624 | CCN(CC)C(=O)c1cc(=O)[nH]c2ccccc12
67 | 875 | O=C(Cn1cccc(-c2nc(-c3ccc(F)cc3)no2)c1=O)Nc1ccc(F)cc1F
68 | 755 | Cc1cc(C)n(CCNC(=O)Cc2ccc(SC(C)C)cc2)n1
69 | 742 | CCOC(=O)c1cnc2nc(C)ccc2c1Nc1ccc(F)cc1Cl
70 | 1040 | Cc1ccc(N2CCN(c3nccn4c(=O)n(CC(=O)Nc5ccc(F)c(Cl)c5)nc34)CC2)cc1
71 | 798 | COc1ccc(NC(=O)Cn2c(=O)c(CCC(=O)NCC(C)C)nc3ccccc32)cc1
72 | 809 | CC(=O)Oc1cc2c(C(=O)NCC3CCCO3)c(C)oc2c2ccccc12 (centres undefined)
73 | 699 | CCOC(=O)Cn1c2ccccc2n2nc(C)c(=O)nc12
74 | 562 | CC(=O)Nc1ccc(CCc2nc3ccc(C(=O)NCC4CCCO4)cc3[nH]2)cc1 (centres undefined)
75 | 808 | CCn1cc(C(=O)Nc2cccc(C(C)=O)c2)c2nn(-c3ccccc3)c(=O)c-2c1
76 | 676 | Cc1noc(C)c1-c1ccc(S(=O)(=O)N2CCN(c3ccccn3)CC2)cc1
77 | 1120 | Cc1cc(C)c(S(=O)(=O)N2CCC(n3cnc4c(C)cccc4c3=O)CC2)c(C)c1
78 | 814 | Cc1ccccc1NC(=O)Cn1c(=O)n(-c2ccc(F)cc2)c2ncccc21
79 | 810 | Cc1ccc(C(=O)N2CCC3(CC2)N=C(c2ccccc2)NO3)s1
80 | 936 | COC(=O)c1nnn(-c2cccc(Cl)c2C)c1C(=O)OC
81 | 641 | CC(C)S(=O)(=O)c1ccc(Cc2nnc(NC(=O)c3ccc4ncsc4c3)o2)cc1
82 | 831 | O=C(Cn1c(=O)cc(C(=O)N2CCc3ccccc3C2)c2ccccc21)Nc1ccc2c(c1)OCCO2
83 | 677 | Cc1cccc(CNS(=O)(=O)c2cc3n(c2)CCCNC3=O)c1
84 | 670 | O=C(CN1CCC2(CC1)N=C(c1ccc(Cl)cc1)C(=O)N2)Nc1ccc2c(c1)OCCO2
85 | 813 | COc1cc(OC)c(NS(=O)(=O)c2cc(-c3c(C)noc3NC(C)=O)ccc2C)cc1Cl
86 | 728 | CCCC(=O)Nc1nc(-c2ccc3c(c2)NC(=O)CO3)cs1
87 | 760 | Cc1ccc(NC(=O)C2(C)Oc3cccnc3NC2=O)cc1C (centres undefined)
88 | 715 | Cc1ccc(Nc2nc(C)cc(N3CCN(C(=O)c4ccc(Br)o4)CC3)n2)cc1
89 | 760 | COc1cccc(-n2cc(C(=O)O)c3ccccc3c2=O)c1
